From patent US20210308077A1, “COMBINATIONS INCLUDING BETA-ADRENORECEPTOR AGONISTS FOR TREATMENT OF PARKINSON`S DISEASE AND MOVEMENT DISORDERS” (The Brigham and Women`s Hospital, Inc., priority 2017, published 2021)
Where a name gives a salt, the structure may show the parent alone.

Columns and labels:
SNCA mRNA [1] = experiment: endogenous SNCA mRNA expression in SK-N-MC neuroblastoma cells (screening, replication, confirmation; qPCR); assay type: cell-based, human; details: for relative SNCA mRNA abundance, confirmation stage: 10 μM for 48 hours, vs vehicle control
Procedure: Human neuroblastoma SK-N-MC cells were acquired from American Type Culture Collection (ATCC). Cells were cultured at 37° C. in 5% CO2 in DMEM/F12 supplemented with 10% fetal bovine serum (FBS) and 100 units per ml penicillin and streptomycin. The drug library was obtained from the Laboratory for Drug Discovery in Neurodegeneration (LDDN), Harvard NeuroDiscovery Center, Boston, Mass. The drug library consisted of approximately 1,126 small molecules. About 586 of the compounds were from Prestwick Chemical's (Illkirch, France) library, a unique collection of mostly off-patent small organic molecules, 90% being marketed drugs and 10% bioactive alkaloids or related substances. About 400 compounds were from the SPECS collection (available on the world wide web at.specs.net). 140 compounds generated in house by the LDDN were also included in the library. Compounds for the screening were stored as DMSO stocks. All drugs used for Confirmation Assay were purchased from Sigma (St. Louis, Mo.).
Approximately 2×10^4low passage SK-N-MC cells were seeded per well in 384-well cell culture plates for 24 hours. Compounds were then transferred into each well (final concentration 1 μM) by using a BioMekFX (Beckman Coulter) equipped with a 384-channel pipetting head. After 48 hours in cell culture incubator, cells were washed once in cold phosphate-buffered saline (PBS) by using BioTek ELx405 select CW plate washer and then lysed at room temperature (22-24° C.) with lysis buffer (Applied Biosystems) using the Cell-to-CT procedures according to the manufacturer's instructions (Applied Biosystems). After 5 min, lysis was terminated by incubation with stop solution (Applied Biosystems). 11 μL of each lysate were transferred to 384-well plates for RT in a total volume of 25 μl. 4 μL of RT reaction were then transferred to new 384-well plates for qPCR.
Using the Cell-to-CT kit (Applied Biosystems) we performed expression analysis directly from SK-N-MC neuroblastoma cells cultured in 384-well plates through in situ cDNA synthesis. In this miniaturized assay, high copy numbers of SNCA and of endogenous controls were detected as indicated by raw cycle threshold values of 25.11±0.02 (mean CT value±SEM) and 20.2±0.02 for SNCA and Ubiquitin C (UBC), respectively. Technical variation (using identical cDNA loaded in multiple wells) and biological variation (cDNA synthesized in situ in each of 384 wells of cultured SK-N-MC cells treated with DMSO) were low, with coefficients of variation of 1% and 5.2% respectively. At least ten DMSO-treated controls were included on each 384-well plate as negative external control and calibrator. An equal amount of cDNA derived from Universal Reference RNA was spotted on all plates as plate-to-plate control. Control reactions lacking template or reverse transcription were assayed for contamination with genomic DNA.
41 compounds were forwarded into the Replication Assay. For each compound eight wells were treated with drug and compared to eight wells treated with DMSO alone. The Cell-to-CT procedure was employed using two new reference genes, ribosomal protein L13 (RPL13) and glucuronidase beta (GUSB) (instead of UBC) to control for input RNA. […] 10 compounds met these criteria and were forwarded from the Replication into the Confirmation Assay.
The ten forwarded compounds were used in the Confirmation Assay. For each compound ten wells were treated with drug and compared to ten wells treated with DMSO alone. RNA was extracted using TRIzol® following the manufacturers protocol (Life Technologies). Freshly ordered compounds were used. […] Six compounds met these criteria and were forwarded from the Confirmation Assay to the ELISA Assay stage (see below).
Total RNA from flash-frozen mice brain tissue, rodent primary cells, human neuroblastoma cells and iPSC-derived neuronal cells was isolated using TRIzol® (Life Technologies) following the manufacturer's protocol. […]

Snca mRNA [2] = experiment: Snca mRNA in rat primary cortical neurons; assay type: cell-based; details: metaproterenol 5 μM, clenbuterol 20 μM, salbutamol 10 μM, 48 hours
Procedure: (§1) Primary cortical cultures were generated from E18 Sprague-Dawley rat embryos. The cortical region was dissected out in Hank's Balanced Salt Solution buffered with Hepes and dissociated with 0.125% trypsin (Invitrogen) for 17 min at 37 ° C., followed by trituration. Dissociated cells were plated at a density of 5×10^5 cells/well or 2.5×10^5 cells/well in 12-well or 24-well plates, respectively precoated with poly-D lysine (100 μg/mL). The cells were cultured in Neurobasal medium with B-27 supplement (Invitrogen) and glutamax and gentamycin. Half of the medium was changed every 4 days. Cortical neurons were treated with β2AR agonists 10 days post plating. They were then harvested 48 hours post-treatment for mRNA extraction and 72 hours post-treatment for protein extraction.
Total RNA from flash-frozen mice brain tissue, rodent primary cells, human neuroblastoma cells and iPSC-derived neuronal cells was isolated using TRIzol® (Life Technologies) following the manufacturer's protocol. RNA concentration was measured using NanoDrop spectrophotometer (Thermo Fisher Scientific, Wilmington, De.). 2 μg of total RNA was reverse transcribed into cDNA using the High Capacity cDNA Reverse Transcription Kit from Applied Biosystems. Quantitative PCR was performed using TaqMan Universal PCR Master Mix (Applied Biosystems) on an ABI 7900HT instrument (Applied Biosystems) as described previously (31). For mouse brain tissue and rat primary cortical neuron samples, rodent-specific TaqMan Assay on-demand primers and probes were used to assay the relative abundance of target genes, and rodent Rp113 was used as a reference gene to normalize for RNA loading. Similar results were obtained when Actb or Ubc were used as controls for input RNA. For human neuroblastoma and iPSC-derived neuron samples, human TaqMan Assay on-demand probes were used to assay the relative abundance of target genes, and the geometric mean of the three human reference genes RPL13, GUSB and UBC was used to normalize for RNA loading. Expression values were analyzed using the comparative threshold cycle method (31).

α-synuclein protein = α-synuclein protein in rat primary cortical neurons (ELISA); assay type: cell-based; details: metaproterenol 5 μM, clenbuterol 20 μM, salbutamol 10 μM, 72 hours
Procedure: as §1
Protein lysis buffer containing 320 mM sucrose, 5 mM NaF, 1 mM Na3VO4, 10 mM Tris (pH 7.4), 1 mM EGTA, and 1 mM EDTA was used for mice brain tissue lysis. 100 μL of cold extraction buffer was added to each sample and homogenized in a dounce homogenizer. […] Total protein concentrations were determined by BCA assay (Thermo Scientific) according to the manufacturer's instructions. Total α-synuclein was quantified using an α-synuclein-specific sandwich ELISA.
An α-synuclein-specific Meso Scale Discovery (MSD) ELISA assay (described in Ref. (11)) was utilized for endogenous α-synuclein protein measurement. […] After samples were emptied and plate washed 3 times with TBS-T, sulfo-tagged SOY1 mAb (detection Ab) (generated using Sulfo-Tag-NHS-Ester (MSD) diluted in blocking buffer (6.7 ng/μl), was added to the plate (30 μl volumes/well) and shaken for 1 hour at room temperature. Following 3 washes, MSD Read (2×, diluted in ultrapure water) buffer was added and the plates were immediately measured using a MSD Sector 2400 imager. For confirmatory studies, an second α-synuclein-specific ELISA implementation was used employing a different, extensively published anti-α-synuclein detection antibody (Syn-1 mAb) and a different anti-α-synuclein capture antibody (1H9, courtesy Dr. Selkoe).

[3] = tested on: 6-hydroxydopamine rat model of PD; details: 6-hydroxydopamine rat model of PD (reference 9); cited from earlier work
[4] = tested on: H3K27 acetylation of SNCA promoter and enhancers; experiment: chromatin immunoprecipitation for H3K27ac at SNCA promoter and enhancers in SK-N-MC cells; assay type: cell-based, human; details: clenbuterol 10 μM, valproic acid 100 μM, propranolol 100 μM, vs vehicle
Procedure: Chromatin immunoprecipitation (ChIP) assays were performed using the Simple ChIP Enzymatic Chromatin IP kit protocol as recommended by the manufacturer (Cell Signaling Technology) with slight modifications. Briefly, ChIPs were performed on asynchronously growing SK-N-MC cells treated with clenbuterol (10 μM), valproic acid (100 μM) or propranolol (100 μM). Cross-linking was carried out with 1% formaldehyde for 10 min at room temperature. Cross-linking was subsequently quenched by adding glycine to a final concentration of 1× for 5 min. Cells were collected and washed twice with PBS, then resuspended in 2 mL of lysis buffer (as described in the protocol). After 10 min on ice, cells were treated with micrococcal nuclease and then sonicated to obtain DNA fragments of ˜500 bp as determined by agarose gel electrophoresis with ethidium bromide staining. Protein-DNA complexes were isolated by centrifugation at 10,000 rpm for 10 min. Supernatants with protein-DNA complexes were incubated overnight with rabbit polyclonal antibody directed against acetylated H3K27 (Abcam). Normal rabbit IgG was used as a negative control and Histone H3 rabbit mAb (ChIP formulated) as positive control. 2% of sample was saved as input. Antibody-protein-DNA complexes were further incubated for 2 hours with 30 μl of ChIP-grade Protein G magnetic beads to isolate antibody bound fractions of chromatin. Immuno-complexes were washed with the buffers provided and as described in the kit. Protein-DNA complexes were eluted and cross-links of pull down fractions and inputs (2% of total IP fraction) were reversed by 2 hours incubation in Proteinase K and 5 M NaCl at 65° C. […] 2 μl of immunoprecipitated DNA was analyzed by qPCR using a Power SYBR Green PCR Master mix (Applied Biosystems by Life technologies) on an ABI 7900HT instrument (Applied Biosystems) with the following temperature profile: 3 min of enzyme activation at 95° C. followed by 40 cycles of 95° C. for 15 s and 60° C. for 60 s. Sample from three independent immunoprecipitation assays were analyzed.

H3K27Ac = experiment: immunoblot with antibody against H3K27Ac in SK-N-MC cells; assay type: cell-based, human; details: vs vehicle-treated cells
Procedure: For western blot analysis, protein samples (20 μg) were run on a 4-20% gradient SDS-polyacrylamide gel (Biorad) and transferred onto a polyvinylidene fluoride (PVDF) membrane filter (0.2 μm; Biorad) using an electroblot apparatus (Bio-Rad, Hercules, Calif.) at 100V for 1 h in transfer buffer (25 mM Tris-HCl, 192 mM glycine, 0.1% SDS, 20% (v/v) methanol). The membrane was incubated in blocking solution (50 mM Tris-HCl, 200 mM NaCl, 1 mM MgCl2, pH 7.4) containing 5% non-fat dry milk powder for 1 hour at room temperature. The membrane was processed through sequential incubations with primary antibody overnight at 4° C. followed by incubation with horseradish peroxidase-conjugated species specific secondary antibody at 1:250 dilutions (Thermo Scientific Pierce). Immunoreactive proteins on the membrane were visualized using the SuperSignal™ West Pico Chemiluminescent kit (Thermo Scientific Pierce). Scanned western blots were analyzed using ImageJ software, version 1.47. Pictures were inverted and usually the background signal from an empty lane was subtracted to obtain specific signals for each lane.

Row | Structure (SMILES) | relative SNCA mRNA abundance, confirmation stage (SNCA mRNA [1]; SK-N-MC cells) | reduction of SNCA expression in the screening stage (SNCA mRNA [1]; SK-N-MC cells, 48 hours, vs DMSO, final concentration 1 μM) | SNCA mRNA expression, dose dependence (SNCA mRNA [1]; SK-N-MC cells, indicated doses, 48 hours) | endogenous Snca mRNA (Snca mRNA [2]) | α-synuclein protein levels (α-synuclein protein) | dopaminergic neurodegeneration [3] | relative SNCA mRNA abundance (with H3K27Ac blot) (SNCA mRNA [1]; SK-N-MC cells, vs vehicle-treated cells) | effect of co-treatment on the β2AR agonist effect on SNCA expression (SNCA mRNA [1]; co-treatment of clenbuterol with valproic acid) | H3K27 acetylation across SNCA promoter and two intronic enhancers (ChIP) [4] | H3K27Ac levels (Western blotting) (H3K27Ac)
1 | CC(C)NCC(O)c1cc(O)cc(O)c1 (centres unmarked) [metaproterenol] | reduced SNCA mRNA abundance | more than 35% | lowered SNCA mRNA expression in a dose-dependent manner | significantly, but modestly, reduced | significantly, but modestly, reduced |  |  |  |  | 
2 | Nc1nc2ccc(OC(F)(F)F)cc2s1 [riluzole hydrochloride] | fourth hit |  |  |  |  | attenuates dopaminergic neurodegeneration |  |  |  | 
3 | CCCC(CCC)C(=O)O [valproic acid] |  |  |  |  |  |  | increase | abrogated the β2AR agonist effect on SNCA expression | increased H3K27 acetylation | increase
